Patent US20260048155A1, “BIOCOMPATIBLE PARAHYDROGEN HYPERPOLARIZED SOLUTIONS BY PRECIPITATION AND RE-DISSOLUTION” (North Carolina State University, priority 2022, published 2026)

How the values were obtained:
[1] = 30 mM pyruvate, prior SABRE-SHEATH work (background); cited from earlier work
[2] = Re-dissolution (Re-D) SABRE: precipitation with ethyl acetate, re-dissolution in water, phase separation at different magnetic fields; type: physicochemical
Description: To investigate the precipitation and re-dissolution of HP [1-^13C]pyruvate, a phase separation approach was applied, FIGS. 5A-5B. To this end, the fact that water and EtAc are immiscible was exploited to modify the setup and procedure accordingly. In this approach, the precipitation was performed in the same NMR tube where hyperpolarization took place. 400 μL EtAc were added quickly to the sample consisting of 100 μL of 30 mM HP [1-^13C]pyruvate, right after removing this sample from the 0.4 μT field and releasing the pressure (≈3-4 s). To mix the solution after EtAc addition, further p-H2 bubbling was used at a low flow rate (˜5-10 scc/m, ambient pressure), FIGS. 5A-5B. For re-dissolution, 300 μL water were added directly to the NMR tube with the precipitate-containing solution, and again, gas flow was used to mix and dissolve the pyruvate microcrystals. After mixing the solutions, most of the aqueous phase rapidly separated from the organic phase (≈1 s). Typical precipitation time was tprec≈2 s and water addition time twater≈6 s, where twater consisted of 1 s to add water, plus 4 s to bubble gas, and 1 s to settle the solution, FIGS. 5A-5B (see FIG. 17 for more information). […] Using this protocol, the obtained two-phase samples visibly contained a major fraction of the catalyst in the organic phase (which remained yellowish and turned reddish after exposure to atmosphere, FIG. 15), whereas a clear aqueous solution of total volume of ≈335±10 μL was obtained (as detailed below approximately half of the CH3OH remained in the aqueous phase), FIGS. 14A-14B. The total volumes of the investigated mixtures containing the precipitate were approximately 500 μL (3.9 cm fill height in the NMR tube), and after the addition of water the total fluid volume was ≈800 μL (≈6 cm fill height). During the phase mixing, parts of the sample were lifted by approximately 5 cm by the ascending p-H2 gas bubbles. The sample height in the NMR tube was the decisive factor affecting the choice of solvent volumes to minimize the mixtures from leaving the 1.4 T field of the benchtop NMR spectrometer (approximately 10 cm along the sample tube) as much as possible. […] These limitations are clear shortcomings of the current experimental design and can be remedied in the future with purpose-built hyperpolarization equipment.
This separation approach was investigated at 4 different magnetic fields: (i) Earth's field; (ii) 10 mT; (iii) 0.3 T; and (iv) 1.4 T, FIGS. 6A-6B. More details on the experiment setups are reported in the SI. Re-D SABRE was performed at (i)-(iv), and the samples were then rapidly transferred to the benchtop 1.4 T NMR, such that the aqueous phase was approximately centered in the radiofrequency coil. In case (iv), for which no transfer was needed, a ≈5-s delay was added to the end of the protocol for consistency with the time needed to transfer the samples in (i-iii).
The detection and quantification of hyperpolarization took place at 1.4 T in all cases.
A more rigorous phase mixing protocol was tested, where the bubbling tube was moved up and down rapidly three times for phase mixing during the twater≈6 s mixing time. […] Considering the final volume of the aqueous phase of 335±10 μL and the measured pyruvate concentration of 5.8±0.8 mM (in the diluted Re-D SABRE sample), the detected ^13C signals corresponded to a nuclear polarization of P13C=9±1% or 8±1%, i.e., ε13C of ≈75,000 at 1.4 T, respectively, N=2 samples, FIGS. 7A-8B. […]

CC(=O)[13C](=O)O [[1-^13C]pyruvate]
P13C in the free state [1]: 13%
ε13C after Re-D SABRE ([2]; aqueous phase, at 1.4 T): ≈ 75,000
P13C after Re-D SABRE ([2]; precipitation and re-dissolution at 0.3 T, N=2, aqueous phase): 4.0±0.8%
P13C after Re-D SABRE ([2]; precipitation and re-dissolution at 1.4 T, N=3, aqueous phase): 3.6±0.6%
P13C after Re-D SABRE ([2]; precipitation and re-dissolution at 10 mT, aqueous phase, detected at 1.4 T): 0.05±0.02%
HP 13C signal after Re-D SABRE ([2]; precipitation and re-dissolution at Earth's field, detected at 1.4 T): No HP ^13C signal was observed
